Data on five compounds can be found in patent publication US20050096259A1, “Neutrophil activation by immune response modifier compounds” (3M Innovative Properties Company, priority 2003, published 2005).

The test system of this experiment is TLR8, TLR7. Kind of experiment: TLR agonism classification (TLR8 versus TLR7 agonist). Format: cell-based. The following applies: classification in words; agonist of TLR8 but not TLR7 = TLR8-selective; no numeric data given. From the text:
The TLR agonism for a particular compound may be assessed in any suitable manner. […] The assay used to assess the agonism of a compound with respect to one TLR may be the same as, or a different than, the assay used to assess the agonism of the compound with respect to another TLR.
Similarly, a compound may be identified as not acting as a TLR7 agonist (i.e., a TLR7 non-agonist) if, when used to perform an assay designed to detect TLR7-mediated biological activity, the compound fails to elicit a threshold increase in TLR7-mediated biological activity. […] An assay may or may not be performed in conjunction with the appropriate control.
Assays employing HEK293 cells transfected with an expressible TLR structural gene may use a threshold of, for example, at least a three-fold increase in a TLR-mediated biological activity (e.g., NFKB activation) when the compound is provided at a concentration of, for example, from about 1 μM to about 30 μM for identifying a compound as an agonist of the TLR transfected into the cell. However, different thresholds and/or different concentration ranges may be suitable in certain circumstances. Also, different thresholds may be appropriate for different assays.
Take `CCOCc1nc2c(N)nc3ccccc3c2n1CCNS(C)(=O)=O` [Compound 6, N-{2-[4-amino-2-(ethoxymethyl)-1H-imidazo[4,5-c]quinolin-1-yl]ethyl}methanesulfonamide]: the “TLR agonist selectivity (TLR7/TLR8) as stated for the compound” value was “TLR8-selective agonist”. For `CC(C)Cn1cnc2c(N)nc3ccccc3c21` [Compound 4, 1-(2-methylpropyl)-1H-imidazo[4,5-c]quinolin-4-amine, reference compound], the “TLR agonist selectivity (TLR7/TLR8) as stated for the compound” value was “TLR7-selective agonist”. The result for `CCc1nc2c(N)nc3ccccc3c2n1CCCCNS(C)(=O)=O` [Compound 3, N-[4-(4-amino-2-ethyl-1H-imidazo[4,5-c]quinolin-1-yl)butyl]methanesulfonamide] reads “TLR7-selective agonist”; that for `CCOCc1nc2c(N)nc3c(c2n1CC(C)(C)O)CCCC3` [Compound 2, 4-amino-2-(ethoxymethyl)-α,α-dimethyl-6,7,8,9-tetrahydro-1H-imidazo[4,5-c]quinoline-1-ethanol], “TLR7/8 agonist”. The result for `CCCCCCCCCCCCCCCC(=O)NCCOCCn1c(CCOC)nc2c(N)nc3ccccc3c21` [Compound 5, N-(2-{2-[4-amino-2-(2-methoxyethyl)-1H-imidazo[4,5-c]quinolin-1-yl]ethoxy}ethyl)hexadecanamide] reads “TLR8-selective agonist”.
